Results: patent US20080114007A1 (priority 2006, published 2008)

Target: CSF-1R (Homo sapiens, UniProt P07333)
Test: Peptide (non-phosphorylated) assay, fluorescence polarization competition immunoassay
Assay type: biochemical
Details: 0.7 nM CSF-1R, 308 μM SYEGNSYTFIDPTQ peptide, 1 mM ATP, 80 min; mean of at least three determinations; read-out: c-fms Peptide IC50
Method in brief: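 Read-out is fluorescence polarization: after EDTA quench, anti-phosphotyrosine antibody plus PTK green tracer compete with the phosphorylated peptide for 30 min. The CSF-1R reaction itself ran 80 min at room temperature after ATP addition. DMSO (4%) wells served as controls, positive controls pre-treated with EDTA.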

Chain of CSF-1R (P07333 20-972): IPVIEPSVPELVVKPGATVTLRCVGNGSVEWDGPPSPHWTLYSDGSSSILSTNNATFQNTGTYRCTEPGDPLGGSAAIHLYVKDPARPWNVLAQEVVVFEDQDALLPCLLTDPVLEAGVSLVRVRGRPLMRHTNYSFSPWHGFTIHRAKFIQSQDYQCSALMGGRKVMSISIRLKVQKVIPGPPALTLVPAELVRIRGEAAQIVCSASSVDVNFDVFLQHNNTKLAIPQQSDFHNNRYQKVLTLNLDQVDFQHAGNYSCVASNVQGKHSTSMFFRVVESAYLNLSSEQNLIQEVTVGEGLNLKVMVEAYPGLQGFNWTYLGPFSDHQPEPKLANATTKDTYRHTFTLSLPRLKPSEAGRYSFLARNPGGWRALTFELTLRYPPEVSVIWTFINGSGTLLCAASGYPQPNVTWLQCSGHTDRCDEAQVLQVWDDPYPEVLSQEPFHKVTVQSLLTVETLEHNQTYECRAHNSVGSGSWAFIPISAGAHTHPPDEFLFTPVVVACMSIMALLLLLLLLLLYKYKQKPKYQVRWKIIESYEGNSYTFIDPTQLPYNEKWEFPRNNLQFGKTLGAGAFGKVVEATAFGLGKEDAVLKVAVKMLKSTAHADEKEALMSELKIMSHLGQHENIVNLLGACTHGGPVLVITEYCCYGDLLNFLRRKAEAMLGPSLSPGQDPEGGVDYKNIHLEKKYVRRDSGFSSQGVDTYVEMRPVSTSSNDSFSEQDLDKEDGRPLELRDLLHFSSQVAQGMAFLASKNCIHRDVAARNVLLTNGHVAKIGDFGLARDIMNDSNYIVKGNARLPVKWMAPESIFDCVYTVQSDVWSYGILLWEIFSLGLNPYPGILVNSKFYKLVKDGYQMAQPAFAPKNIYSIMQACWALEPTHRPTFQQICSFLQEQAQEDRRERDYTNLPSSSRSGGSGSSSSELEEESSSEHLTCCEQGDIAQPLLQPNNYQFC

Structure (SMILES) | IC50 [nM]
CCc1ccc(-n2cc(C(=O)NOC)c(=O)c3cnc(Nc4ccc(NCCCOC)cc4)nc32)cc1 [Cpd 213, 8-(4-ethyl-phenyl)-2-[4-(3-methoxy-propylamino)-phenylamino]-5-oxo-5,8-dihydro-pyrido[2,3-d]pyrimidine-6-carboxylic acid methoxy-amide] | 1.1
CCc1ccc(-n2cc(C(=O)NOC)c(=O)c3cnc(Nc4cccc(N(C)C)c4)nc32)cc1 [Cpd 319, 2-(3-dimethylamino-phenylamino)-8-(4-ethyl-phenyl)-5-oxo-5,8-dihydro-pyrido[2,3-d]pyrimidine-6-carboxylic acid methoxy-amide] | 1.7
CCONC(=O)c1cn(C2CCCCC2)c2nc(Nc3ccc(C4CCN(C)CC4)cc3)ncc2c1=O [Cpd 141, 8-cyclohexyl-2-[4-(1-methyl-piperidin-4-yl)-phenylamino]-5-oxo-5,8-dihydro-pyrido[2,3-d]pyrimidine-6-carboxylic acid ethoxy-amide] | 1.3
CONC(=O)c1cn(-c2ccc3c(c2)CCC3)c2nc(Nc3ccc(CCN4CCCC4=O)cc3)ncc2c1=O [Cpd 134, 8-indan-5-yl-5-oxo-2-{4-[2-(2-oxo-pyrrolidin-1-yl)-ethyl]-phenylamino}-5,8-dihydro-pyrido[2,3-d]pyrimidine-6-carboxylic acid methoxy-amide] | 6.8
CONC(=O)c1cn(-c2ccc3c(c2)CCC3)c2nc(Nc3ccc(CC(=O)NN4CCCCC4)cc3)ncc2c1=O [Cpd 102, 8-indan-5-yl-5-oxo-2-[4-(piperidin-1-ylcarbamoylmethyl)-phenylamino]-5,8-dihydro-pyrido[2,3-d]pyrimidine-6-carboxylic acid methoxy-amide] | 2.3
O=C(NCCO)c1cn(C2CCCC2)c2nc(Nc3ccc(CCN4CCCC4)cc3)ncc2c1=O [Cpd 43, 8-cyclopentyl-5-oxo-2-[4-(2-pyrrolidin-1-yl-ethyl)-phenylamino]-5,8-dihydro-pyrido[2,3-d]pyrimidine-6-carboxylic acid (2-hydroxy-ethyl)-amide] | 31

Stronger by IC50, values ahead:

IC50 [nM] | Structure (SMILES)
0.55 | CONC(=O)c1cn(-c2ccc3c(c2)CCC3)c2nc(Nc3ccc(CCN4CCC[C@@H]4CO)cc3)ncc2c1=O [Cpd 101, (R)-2-{4-[2-(2-hydroxymethyl-pyrrolidin-1-yl)-ethyl]-phenylamino}-8-indan-5-yl-5-oxo-5,8-dihydro-pyrido[2,3-d]pyrimidine-6-carboxylic acid methoxy-amide]
0.4 | CCc1ccc(-n2cc(C(=O)NOC)c(=O)c3cnc(Nc4ccc(C5CCN(CC)CC5)cc4)nc32)cc1 [Cpd 157, 8-(4-ethyl-phenyl)-2-[4-(1-ethyl-piperidin-4-yl)-phenylamino]-5-oxo-5,8-dihydro-pyrido[2,3-d]pyrimidine-6-carboxylic acid methoxy-amide]
0.4 | CCc1ccc(-n2cc(C(=O)NOC)c(=O)c3cnc(Nc4ccc5c(c4)OCCOCCOCCOCCOCCO5)nc32)cc1 [Cpd 294, 2-(6,7,9,10,12,13,15,16,18,19-decahydro-5,8,11,14,17,20-hexaoxa-benzocyclooctadecen-2-ylamino)-8-(4-ethyl-phenyl)-5-oxo-5,8-dihydro-pyrido[2,3-d]pyrimidine-6-carboxylic acid methoxy-amide]
0.25 | CONC(=O)c1cn(C2CCC(C)(C)CC2)c2nc(Nc3ccc(C4CCN(CCO)CC4)cc3)ncc2c1=O [Cpd 210, 8-(4,4-dimethyl-cyclohexyl)-2-{4-[1-(2-hydroxy-ethyl)-piperidin-4-yl]-phenylamino}-5-oxo-5,8-dihydro-pyrido[2,3-d]pyrimidine-6-carboxylic acid methoxy-amide]
0.28 | CCc1ccc(-n2cc(C(=O)NOC)c(=O)c3cnc(Nc4ccc(CCN5CCC[C@@H](O)C5)cc4)nc32)cc1 [Cpd 240, 8-(4-ethyl-phenyl)-2-(4-{2-[(3R)-(3-hydroxy-piperidin-1-yl)]-ethyl}-phenylamino)-5-oxo-5,8-dihydro-pyrido[2,3-d]pyrimidine-6-carboxylic acid methoxy-amide]
